These are literature values, as cited in patent US20230000786A1, “TREATMENT OF SKIN DISORDERS WITH TOPICAL COMPOSITIONS COMPRISING TAPINAROF AND A PDE4 INHIBITOR” (Sol-Gel Technologies Ltd., priority 2019, published 2023).

Series [1] concerns proinflammatory mediators, including interleukin-6 and interleukin-17A. The note with it: mouse models.
Series [2] shares this test system. To be noted: in vitro human skin studies.
The conditions of series [3]: 1% tapinarof arm compared with 0.5% arm or vehicle.
The conditions of series [4]: psoriasis treatment, single drug; placebo 20.2%.
The conditions of series [5]: across all groups treated.
Where [6] appears, read: interleukin-6 and interleukin-17A.

SMILES strings stand for the structures. Where two headings read alike, the source gives them in different places.

Turning to `CC(C)c1c(O)cc(/C=C/c2ccccc2)cc1O` [Tapinarof, 3,5-dihydroxy-4-isopropyl-trans-stilbene], the skin barrier function entry in series [1] and in series [2] was “enhance skin barrier function” in each case. Also, the “inhibition of specific proinflammatory mediators” value in series [1] (setting [6]) and in series [2] (setting [6]) was “inhibit specific proinflammatory mediators” each time. In series [3], the efficacy entry is recorded as “higher efficacy”. The onset of action result in series [3] is listed as “quicker onset of action”. The adverse effects in series [4] is given as 44.5%. Moreover, the folliculitis side-effect in series [5] is recorded as 9%. In addition, the contact dermatitis side-effect in series [5] (listed among most common side-effects (>5%)) is given as more than 5%.
Turning to `C=C1/C(=C\C=C2/CCC[C@]3(C)[C@@H]([C@H](C)/C=C/[C@@H](O)C4CC4)CC[C@@H]23)C[C@@H](O)C[C@@H]1O` [calcipotriene], in series [4], the adverse effects is recorded as 19.5%.
